Laboratory results from the supplement of paper PMC10307832.

Legend:
Assay in all cases: relative viability (nuclei count vs DMSO), 5 days (fraction); higher = more cells survive
CX-5461 + Crizotinib = compound: Cc1cnc(CNC(=O)c2c(=O)c3ccc(N4CCCN(C)CC4)nc3n3c2sc2ccccc23)cn1 [CX-5461] + C[C@@H](Oc1cc(-c2cnn(C3CCNCC3)c2)cnc1N)c1c(Cl)ccc(F)c1Cl [Crizotinib] (partner 1 µM)
Method in brief: (§1)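 For relative viability, nuclei counts in treated wells were divided by those in vehicle wells. Lung cancer cell lines had been pin-tool dosed in 1536-well plates the day after seeding and cultured for 5 days, then fixed and stained in one step (final 0.05% Triton X-100, 1% formaldehyde, 1 ug/ml Hoechst) and imaged at 4×. Doses were one drug alone or a fixed anchor-drug dose plus five library-drug doses (not always all listed) in √10 steps, and values are duplicate-plate medians.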

CX-5461 + Decitabine = compound: Cc1cnc(CNC(=O)c2c(=O)c3ccc(N4CCCN(C)CC4)nc3n3c2sc2ccccc23)cn1 [CX-5461] + Nc1ncn([C@H]2C[C@H](O)[C@@H](CO)O2)c(=O)n1 [Decitabine] (partner 2 µM)
Method in brief: as §1

IMD-0354 + Tozasertib = compound: O=C(Nc1cc(C(F)(F)F)cc(C(F)(F)F)c1)c1cc(Cl)ccc1O [IMD-0354] + Cc1cc(Nc2cc(N3CCN(C)CC3)nc(Sc3ccc(NC(=O)C4CC4)cc3)n2)n[nH]1 [Tozasertib] (partner 0.1 µM)
Method in brief: as §1

IMD-0354 + Vorinostat = compound: O=C(Nc1cc(C(F)(F)F)cc(C(F)(F)F)c1)c1cc(Cl)ccc1O [IMD-0354] + O=C(CCCCCCC(=O)Nc1ccccc1)NO [Vorinostat] (partner 1 µM)
Method in brief: as §1

Row | Cell Line | relative viability (CX-5461 + Crizotinib; first compound 0.01 µM) | relative viability (CX-5461 + Crizotinib; first compound 0.03162 µM) | relative viability (CX-5461 + Crizotinib; first compound 0.1 µM) | relative viability (CX-5461 + Crizotinib; first compound 0.3162 µM) | relative viability (CX-5461 + Crizotinib; first compound 1 µM) | relative viability (CX-5461 + Decitabine; first compound 0.01 µM) | relative viability (CX-5461 + Decitabine; first compound 0.03162 µM) | relative viability (CX-5461 + Decitabine; first compound 0.1 µM) | relative viability (CX-5461 + Decitabine; first compound 0.3162 µM) | relative viability (CX-5461 + Decitabine; first compound 1 µM) | relative viability (IMD-0354 + Tozasertib; first compound 0.04 µM) | relative viability (IMD-0354 + Tozasertib; first compound 0.1265 µM) | relative viability (IMD-0354 + Tozasertib; first compound 0.4 µM) | relative viability (IMD-0354 + Tozasertib; first compound 1.265 µM) | relative viability (IMD-0354 + Tozasertib; first compound 4 µM) | relative viability (IMD-0354 + Vorinostat; first compound 0.04 µM) | relative viability (IMD-0354 + Vorinostat; first compound 0.1265 µM) | relative viability (IMD-0354 + Vorinostat; first compound 0.4 µM) | relative viability (IMD-0354 + Vorinostat; first compound 1.265 µM) | relative viability (IMD-0354 + Vorinostat; first compound 4 µM)
1 | HCC-44 | 0.796 | 0.832 | 0.823 | 0.782 | 0.801 | 0.946 | 1.02 | 0.887 | 0.939 | 0.837 | 0.955 | 0.899 | 0.706 | 0.351 | 0.17 | 1.03 | 1.05 | 1.07 | 0.873 | 0.364
2 | HCC-827 | 0.876 | 0.877 | 0.905 | 0.866 | 0.846 | 0.339 | 0.337 | 0.342 | 0.282 | 0.3 | 0.437 | 0.458 | 0.353 | 0.353 | 0.182 | 0.86 | 0.841 | 0.706 | 0.264 | 0.29
3 | NCI-H1623 |  |  |  |  |  |  |  |  |  |  | 0.484 | 0.444 | 0.398 | 0.342 | 0.277 |  |  |  |  | 
4 | NCI-H2347 | 0.446 | 0.696 | 0.674 | 0.687 | 0.523 | 0.628 | 0.638 | 0.625 | 0.604 | 0.589 | 0.767 | 0.513 | 0.563 | 0.505 | 0.233 | 0.636 | 0.629 | 0.512 | 0.315 | 0.382
5 | PC-14 | 1.02 | 1.05 | 0.957 | 0.863 | 0.91 | 0.246 | 0.202 | 0.152 | 0.204 | 0.114 | 0.675 | 0.61 | 0.353 | 0.312 | 0.076 | 0.83 | 0.751 | 0.564 | 0.234 | 0.119
6 | NCI-H1651 | 0.829 | 0.862 | 0.76 | 0.967 | 0.812 | 0.598 | 0.554 | 0.452 | 0.588 | 0.158 | 0.662 | 0.658 | 0.317 | 0.363 | 0.0982 | 0.583 | 0.602 | 0.504 | 0.299 | 0.168
7 | HARA | 1.16 | 1.14 | 0.941 | 0.206 | 0.954 | 0.595 | 0.429 | 0.559 | 0.587 | 0.526 | 0.102 | 0.132 | 0.105 | 0.0599 | 0.0875 | 0.562 | 0.507 | 0.355 | 0.265 | 0.072
8 | NCI-H1650 | 1.08 | 0.996 |  | 0.948 | 0.149 | 0.395 | 0.441 | 0.344 | 0.378 | 0.207 | 0.47 | 0.362 | 0.253 | 0.259 | 0.19 | 0.541 | 0.724 | 0.377 | 0.199 | 0.193
9 | NCI-H1793 |  |  |  |  |  | 0.504 | 0.446 | 0.535 | 0.379 | 0.581 | 0.405 | 0.321 | 0.233 | 0.15 | 0.191 | 0.698 | 0.949 | 0.461 | 0.262 | 0.287
